Where a name gives a salt, the structure may show the parent alone.
How the values were obtained:
[1] = test system: Z138 mantle cell lymphoma tumour cell lines; assay: In vitro cytotoxicity, MTT assay; type: cell-based; settings: Z138 cells exposed to the test compounds for 96 hours, cell viability vs DMSO treated cells
Method in brief: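 Z138 cells exposed to compounds for 96 hours, then MTT added for 4 hours. Viable cells quantified from formazan absorbance at 540 nm.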

[2] = biological target: T1, His-His-USP7 (aa208-560, |C315A|) (Homo sapiens, UniProt Q93009, C315A); assay: Evaluation of the inhibition of USP7 by the Fluorescence Intensity (FLINT) readings; type: biochemical; settings: 0.25 nM His-His-USP7, compound incubated 60 minutes at 30° C., 500 nM Ubiquitin-Rhodamine-110 substrate; 50% reduction in kinetic rate
T1 construct: His-His-USP7 (aa208-560, |C315A|); His-His (N)
T1 sequence (Q93009 208-560 C315A): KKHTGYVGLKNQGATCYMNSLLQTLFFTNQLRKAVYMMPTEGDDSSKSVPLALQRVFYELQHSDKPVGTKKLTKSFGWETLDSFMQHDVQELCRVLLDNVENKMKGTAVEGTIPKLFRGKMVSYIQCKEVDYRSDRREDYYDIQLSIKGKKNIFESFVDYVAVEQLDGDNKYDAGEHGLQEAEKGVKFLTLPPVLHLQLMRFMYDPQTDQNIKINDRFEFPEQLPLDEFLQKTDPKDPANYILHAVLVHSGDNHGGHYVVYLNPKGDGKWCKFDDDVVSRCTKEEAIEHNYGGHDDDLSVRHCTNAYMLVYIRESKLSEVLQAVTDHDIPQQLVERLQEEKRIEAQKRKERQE
Method in brief: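 0.25 nM His-His-USP7 (aa208–560, C315A) preincubated 60 min at 30 °C with compound in 100 mM Bicine pH 8.0, 0.01% Triton X-100, 1 mM TCEP, 10% DMSO. Reaction started with 500 nM ubiquitin-rhodamine-110 and fluorescence (Ex485/Em535) read every 3 min for 21 min. IC50 derived from kinetic-rate reduction over an 11-point curve, 4-parameter fit.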

Compound	IC50 [2]	IC50 ([1]; Homo sapiens, Z-138, 96 h)	IC50 [1]
Nc1c(Oc2ccc3cn[nH]c3c2)ncn(CC2(O)CCN(C(=O)[C@@H]3CCC(F)(F)C[C@H]3c3ccccc3)CC2)c1=O [Example 35, 5-amino-3-({1-[(1R,2R)-4,4-difluoro-2-phenylcyclohexane-1-carbonyl]-4-hydroypiperidin-4-yl}methyl)-6-[(1H-indazol-6-yl)oxy]pyrimidin-4(3H)-one]	34.2 nM	0.081 µM	–
CO[C@@]1(C#Cc2cccnn2)CC[C@@H](C(=O)N2CCC(O)(Cn3cnc(Oc4ccc(F)cc4)c(N)c3=O)CC2)[C@H](c2ccccc2)C1 [Example 147, 5-amino-6-(4-fluorophenoxy)-3-[(4-hydroxy-1-{[(1R,2R,4S)-4-methoxy-2-phenyl-4-[2-(pyridazin-3-yl)ethynyl]cyclohexyl]carbonyl}piperidin-4-yl)methyl]pyrimidin-4-one]	124 nM	0.199 µM	–
NCc1ccc(Oc2ncn(CC3(O)CCN(C(=O)[C@@H]4CCC(F)(F)C[C@H]4c4ccccc4)CC3)c(=O)c2N)cc1 [Example 59, 5-amino-6-[4-(aminomethyl)phenoxy]-3-({1-[(1R,2R)-4,4-difluoro-2-phenylcyclohexane-1-carbonyl]-4-hydroxypiperidin-4-yl}methyl)pyrimidin-4(3H)-one]	4.2 nM	0.064 µM	–
NCc1ccc(Oc2ncn(CC3(O)CCN(C(=O)[C@@H]4CCC(F)(F)C[C@H]4c4ccccc4)CC3)c(=O)c2N)cc1F [Example 65, 5-amino-6-[4-(aminomethyl)-3-fluorophenoxy]-3-({1-[(1R,2R)-4,4-difluoro-2-phenylcyclohexane-1-carbonyl]-4-hydroxypiperidin-4-yl}methyl)pyrimidin-4(3H)-one]	10 nM	0.386 µM	–
5-amino-6-(3-chlorophenyl)-3-({1-[(1R,2R)-4,4-difluoro-2-phenylcyclohexane-1-carbonyl]-4-hydroxypiperidin-4-yl}methyl)pyrimidin-4(3H)-one [Example 13]	97.5 nM	–	0.178 µM
Nc1c(Oc2ccc(F)cc2)ncn(CC2(O)CCN(C(=O)[C@@H]3CC[C@](F)(C#Cc4cccnc4)C[C@H]3c3ccccc3)CC2)c1=O [Example 130, 5-amino-3-[(1-{[(1R,2R,4R)-4-fluoro-2-phenyl-4-[2-(pyridin-3-yl)ethynyl]cyclohexyl]carbonyl}-4-hydroxypiperidin-4-yl)methyl]-6-(4-fluorophenoxy)pyrimidin-4-one]	17 nM	0.0144 µM	–
Nc1c(Oc2ccc(F)cc2)ncn(CC2(O)CCN(C(=O)[C@@H]3CCC(F)(F)C[C@H]3c3ccccc3)CC2)c1=O [Example 5, 5-amino-3-({1-[(1R,2R)-4,4-difluoro-2-phenylcyclohexane-1-carbonyl]-4-hydroxypiperidin-4-yl}methyl)-6-(4-fluorophenoxy)pyrimidin-4(3H)-one]	63.4 nM	0.0435 µM	–
Nc1c(Oc2ccc(CO)cc2)ncn(CC2(O)CCN(C(=O)[C@@H]3CCC(F)(F)C[C@H]3c3ccccc3)CC2)c1=O [Example 23, 5-amino-3-({1-[(1R,2R)-4,4-difluoro-2-phenylcyclohexane-1-carbonyl]-4-hydroxypiperidin-4-yl}methyl)-6-[4-(hydroymethyl)phenoxy]pyrimidin-4(3H)-one]	40 nM	0.22 µM	–
Nc1c(Oc2ccc(CCO)cc2)ncn(CC2(O)CCN(C(=O)[C@@H]3CCC(F)(F)C[C@H]3c3ccccc3)CC2)c1=O [Example 36, 5-amino-3-({1-[(1R,2R)-4,4-difluoro-2-phenylcyclohexane-1-carbonyl]-4-hydroxypiperidin-4-}methyl)-6-[4-(2-hydroxyethyl)phenoxy]pyrimdin-4(3H)-one]	29 nM	0.035 µM	–
Nc1c(Oc2ccc(F)cc2)ncn(CC2(O)CCN(C(=O)[C@@H]3CC[C@@](F)(C#Cc4cnccn4)C[C@H]3c3ccccc3)CC2)c1=O [Example 137, 5-amino-3-({1-[(1R42R,4S)-4-fluoro-2-phenyl-4-[2-(pyrazin-2-yl)ethynyl]cyclohexanecarbonyl]-4-hydroxypiperidin-4-yl}methyl)-6-(4-fluorophenoxy)-3,4-dihydropyrimidin-4-one]	62.7 nM	0.0246 µM	–
CO[C@]1(C#Cc2ccccn2)CC[C@@H](C(=O)N2CC[C@](O)(Cn3cnc(Oc4ccc(F)cc4)c(N)c3=O)C(F)(F)C2)[C@H](c2ccccc2)C1 [Example 166, 5-amino-3-{[(4S)-3,3-difluoro-4-hydroxy-1-[(1R,2R,4R)-4-methoxy-2-phenyl-4-[2-(pyridin-2-yl)ethynyl]cyclohexanecarbonyl]piperidin-4-yl]methyl}-6-(4-fluorophenoxy)-3,4-dihydropyrimidin-4-one]	11.2 nM	0.00943 µM	–
COc1ccc(Oc2ncn(CC3(O)CCN(C(=O)[C@@H]4CCC(F)(F)C[C@H]4c4ccccc4)CC3)c(=O)c2N)cc1 [Example 3, 5-amino-3-({1-[(1R,2R)-4,4-difluoro-2-phenylcyclohexane-1-carbonyl]-4-hydroxypiperidin-4-yl}methyl)-6-(4-methoxyphenoxy)pyrimidin-4(3H)-one]	80.2 nM	0.0595 µM	–
Nc1c(Oc2ccc3c(c2)CNC3)ncn(CC2(O)CCN(C(=O)[C@@H]3CCC(F)(F)C[C@H]3c3ccccc3)CC2)c1=O [Example 32, 5-amino-3-({1-[(1R,2R)-4,4-difluoro-2-phenylcyclohexane-1-carbonyl]-4-hydroxypiperidin-4-yl}methyl)-6-[(2,3-dihydro-1H-isoindol-5-yl)oxy]pyrimidin-4(3H)-one]	32 nM	0.896 µM	–

More lines, main results first:

IC50 [2]	Compound	IC50 ([1]; Homo sapiens, Z-138, 96 h)	IC50 [1]
21 nM	Nc1c(Oc2ccc(F)cc2)ncn(CC2(O)CCN(C(=O)[C@@H]3CC[C@](F)(C#Cc4cncnc4)C[C@H]3c3ccccc3)CC2)c1=O [Example 144, 5-amino-3-({1-[(1R,2R,4R)-4-fluoro-2-phenyl-4-[2-(pyrimidin-5-yl)ethynyl]cyclohexanecarbonyl]-4-hydroxypiperidin-4-yl}methyl)-6-(4-fluorophenyoxy)-3,4-dihydropyrimidin-4-one]	0.0122 µM	–
39 nM	NCCCc1ccc(Oc2ncn(CC3(O)CCN(C(=O)[C@@H]4CCC(F)(F)C[C@H]4c4ccccc4)CC3)c(=O)c2N)cc1 [Example 68, 5-amino-6-[4-(3-aminopropyl)phenoxy]-3-([1-[(1R,2R)-4,4-difluoro-2-phenylcyclohexane-1-carbonyl]-4-hydroxypiperidin-4-yl]methyl)pyrimidin-4(3H)-one]	0.454 µM	–
27.2 nM	Nc1c(Oc2ccc(F)cc2)ncn(C[C@@]2(O)CCN(C(=O)[C@@H]3CC[C@](F)(C#Cc4ncccn4)C[C@H]3c3ccccc3)CC2(F)F)c1=O [Example 167, 5-amino-3-{[(4S)-3,3-difluoro-1-[(1R,2R,4R)-4-fluoro-2-phenyl-4-[2-(pyrimidin-2-yl)ethynyl]cyclohexanecarbonyl]-4-hydroxypiperldin-4-yl]methyl}-6-(4-fluorophenoxy)-3,4-dihydropyrimidin-4-one]	0.0124 µM	–
3.9 nM	NCc1ccc(Oc2ncn(C[C@@]3(O)CCN(C(=O)[C@@H]4CCC(F)(F)C[C@H]4c4ccccc4)CC3(F)F)c(=O)c2N)cc1 [Example 90, 5-amino-6-[4-(aminomethyl)phenoxy]-3-({(4S)-1-[(1R,2R)-4,4-difluoro-2-phenylcyclohexane-1-carbonyl]-3,3-difluoro-4-hydroxypiperidin-4-yl}methyl)pyrimidin-4(3H)-one]	0.16 µM	–
33.3 nM	CO[C@]1(C#Cc2cnc(C)nc2)CC[C@@H](C(=O)N2CC[C@](O)(Cn3cnc(Oc4ccc(F)cc4)c(N)c3=O)C(F)(F)C2)[C@H](c2ccccc2)C1 [Example 177, 5-amino-3-{[(4S)-3,3-difluoro-4-hydroxy-1-[(1R,2R,4R)-4-methoxy-4-[2-(2-methylpyrimidin-5-yl)ethynyl]-2-phenylcyclohexanecarbonyl]piperidin-4-yl]methyl}-6-(4-fluorophenoxy)-3,4-dihydropyrimidin-4-one]	0.0218 µM	–
20 nM	Nc1c(Oc2ccc3c(c2)CNCC3)ncn(CC2(O)CCN(C(=O)[C@@H]3CCC(F)(F)C[C@H]3c3ccccc3)CC2)c1=O [Example 26, 5-amino-3-({1-[(1R,2R)-4,4-difluoro-2-phenylcyclohexane-1-carbonyl]-4-hydroxypiperidin-4-yl}methyl)-6-[(1,2,3,4-tetrahydroisoquinolin-7-yl)oxy]pyrimidin-4(3H)-one, hydrochloride]	0.406 µM	–
58.7 nM	Nc1c(Oc2ccc(Cl)cc2)ncn(CC2(O)CCN(C(=O)[C@@H]3CCC(F)(F)C[C@H]3c3ccccc3)CC2)c1=O [Example 11, 5-amino-6-(4-chlorophenoxy)-3-({1-[(1R,2R)-4,4-difluoro-2-phenylcyclohexane-1-carbonyl]-4-hydroxypiperidin-4-yl}methyl)pyrimidin-4(3H)-one]	0.197 µM	–
9.8 nM	NCc1cccc(Oc2ncn(CC3(O)CCN(C(=O)[C@@H]4CCC(F)(F)C[C@H]4c4ccccc4)CC3)c(=O)c2N)c1 [Example 61, 5-amino-6-[3-(aminomethyl)phenoxy]-3-({1-[(1R,2R)-4,4-difluoro-2-phenylcyclohexane-1-carbonyl]-4-hydroxypiperidin-4-hydroxypiperidin-4-yl}methyl)pyrimidin-4(3H)-one]	0.028 µM	–

Source: patent US20210221785A1, “AMINO-PYRIMIDONYL DERIVATIVES, A PROCESS FOR THEIR PREPARATION AND PHARMACEUTICAL COMPOSITIONS CONTAINING THEM” (LES LABORATOIRES SERVIER, priority 2018, published 2021)
